From patent US8143290B2, “Chemical compounds 572” (AstraZeneca AB, priority 2006, dated 2012) come the findings set out here.

This assay deals with T1, recombinant human GR (Homo sapiens, UniProt P04150).
T1 construct: purchased Panvera/Invitrogen P2812 (kit P2893)
T1 sequence (P04150 1-777): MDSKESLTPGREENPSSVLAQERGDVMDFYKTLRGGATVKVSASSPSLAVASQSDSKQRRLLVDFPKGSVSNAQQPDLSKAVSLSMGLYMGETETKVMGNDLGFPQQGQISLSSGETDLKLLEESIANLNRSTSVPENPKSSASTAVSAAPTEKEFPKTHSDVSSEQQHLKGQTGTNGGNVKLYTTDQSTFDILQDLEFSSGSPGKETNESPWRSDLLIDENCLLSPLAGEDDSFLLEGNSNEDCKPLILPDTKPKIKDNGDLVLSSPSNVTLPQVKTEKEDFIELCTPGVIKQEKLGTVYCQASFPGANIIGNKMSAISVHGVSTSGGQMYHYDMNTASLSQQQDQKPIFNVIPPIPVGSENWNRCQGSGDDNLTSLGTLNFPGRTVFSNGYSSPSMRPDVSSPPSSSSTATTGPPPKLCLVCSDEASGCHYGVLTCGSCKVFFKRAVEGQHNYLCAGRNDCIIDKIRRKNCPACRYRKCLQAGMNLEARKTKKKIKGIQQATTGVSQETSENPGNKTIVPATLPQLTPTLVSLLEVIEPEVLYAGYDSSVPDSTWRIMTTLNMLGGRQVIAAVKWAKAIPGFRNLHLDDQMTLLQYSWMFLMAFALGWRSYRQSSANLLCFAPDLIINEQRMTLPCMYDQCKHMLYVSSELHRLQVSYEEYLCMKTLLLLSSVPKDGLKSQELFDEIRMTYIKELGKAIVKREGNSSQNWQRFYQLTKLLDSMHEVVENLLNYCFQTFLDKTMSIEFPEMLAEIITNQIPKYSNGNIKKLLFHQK
Put plainly: Human Glucocorticoid Receptor (GR) Assay, fluorescence polarization. It is filed as binding. The following applies: GS Red tracer, incubated 2 h at r.t., XLfit model 205, read-out: GRhuFL_FP_v2 Mean IC50. Put shortly: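 Fluorescence polarization kit assay: recombinant GR and GS Red fluorescent ligand with Stabilizing Peptide and DTT in potassium phosphate/sodium molybdate/EDTA screening buffer. Plates incubated 2 h in the dark at r.t.; DMSO served as 0% and dexamethasone as 100% control.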
For orientation: In fluorescence polarisation assays a small probe gives low polarisation when free and higher when bound to something large.

`C[C@H](NC(=O)C(F)(F)F)[C@H](Oc1ccc2c(cnn2-c2cccc(CN(C)C)c2)c1)c1ccccc1` [Example 146, N-((1R,2S)-1-(1-(3-((dimethylamino)methyl)phenyl)-1H-indazol-5-yloxy)-1-phenylpropan-2-yl)-2,2,2-trifluoroacetamide]: the IC50 (in general, the concentration that gives 50% inhibition) was found to be 78 nM.

`Cc1ccc([C@@H](Oc2ccc3c(cnn3-c3ccc(F)cc3)c2)[C@H](C)NC(=O)C(F)(F)F)cc1C` [Example 149, N-[(1R,2S)-1-(3,4-dimethylphenyl)-1-[1-(4-fluorophenyl)indazol-5-yl]oxy-propan-2-yl]-2,2,2-trifluoro-acetamide]: the IC50 amounted to 5.5 nM. In the case of `C[C@H](NC(=O)C(F)(F)F)[C@H](Oc1ccc2c(cnn2-c2ccc(F)cc2)c1)c1ccc(F)c(F)c1` [Example 150, N-[(1R,2S)-1-(3,4-difluorophenyl)-1-[1-(4-fluorophenyl)indazol-5-yl]oxy-propan-2-yl]-2,2,2-trifluoro-acetamide] it was 4.6 nM. Take `Cc1ccc([C@@H](Oc2ccc3c(cnn3-c3ccc(F)cc3)c2)[C@H](C)NC(=O)C(F)(F)F)cc1F` [Example 151, 2,2,2-trifluoro-N-[(1R,2S)-1-(3-fluoro-4-methyl-phenyl)-1-[1-(4-fluorophenyl)indazol-5-yl]oxy-propan-2-yl]acetamide]: the IC50 came to 32 nM. Take `C[C@H](NC(=O)C(F)(F)F)[C@H](Oc1ccc2c(cnn2-c2ccc(F)cc2)c1)c1cccc(F)c1` [Example 152, 2,2,2-trifluoro-N-[(1R,2S)-1-(3-fluorophenyl)-1-[1-(4-fluorophenyl)indazol-5-yl]oxy-propan-2-yl]acetamide]: the IC50 worked out at 3.6 nM.

With `Cc1ccc(C)c([C@@H](Oc2ccc3c(cnn3-c3ccc(F)cc3)c2)[C@H](C)NC(=O)C(F)(F)F)c1` [Example 153, N-[(1R,2S)-1-(2,5-dimethylphenyl)-1-[1-(4-fluorophenyl)indazol-5-yl]oxy-propan-2-yl]-2,2,2-trifluoro-acetamide], the IC50 worked out at 3.6 nM. In the case of `Cc1ccc([C@@H](Oc2ccc3c(cnn3-c3ccc(F)cc3)c2)[C@H](C)NC(=O)C(F)(F)F)c(C)c1` [Example 154, N-[(1R,2S)-1-(2,4-dimethylphenyl)-1-[1-(4-fluorophenyl)indazol-5-yl]oxy-propan-2-yl]-2,2,2-trifluoro-acetamide] it was 4.7 nM; in that of `C[C@H](NC(=O)C(F)(F)F)[C@H](Oc1ccc2c(cnn2-c2ccc(F)cc2)c1)c1cccc(Cl)c1` [Example 155, N-[(1R,2S)-1-(3-chlorophenyl)-1-[1-(4-fluorophenyl)indazol-5-yl]oxy-propan-2-yl]-2,2,2-trifluoro-acetamide], 5 nM. In the case of `Cc1cc(F)ccc1[C@@H](Oc1ccc2c(cnn2-c2ccc(F)cc2)c1)[C@H](C)NC(=O)C(F)(F)F` [Example 156, 2,2,2-trifluoro-N-[(1R,2S)-1-(4-fluoro-2-methyl-phenyl)-1-[1-(4-fluorophenyl)indazol-5-yl]oxy-propan-2-yl]acetamide] it was 4.2 nM; in that of `Cc1ccc(F)cc1[C@@H](Oc1ccc2c(cnn2-c2ccc(F)cc2)c1)[C@H](C)NC(=O)C(F)(F)F` [Example 157, 2,2,2-trifluoro-N-[(1R,2S)-1-(5-fluoro-2-methyl-phenyl)-1-[1-(4-fluorophenyl)indazol-5-yl]oxy-propan-2-yl]acetamide], 5.3 nM; in that of `COc1c(C)cc([C@@H](Oc2ccc3c(cnn3-c3ccc(F)cc3)c2)[C@H](C)NC(=O)C(F)(F)F)cc1C` [Example 159, 2,2,2-trifluoro-N-[(1R,2S)-1-[1-(4-fluorophenyl)indazol-5-yl]oxy-1-(4-methoxy-3,5-dimethyl-phenyl)propan-2-yl]acetamide], 4.2 nM. In the case of `C[C@H](NC(=O)C(F)(F)F)[C@H](Oc1ccc2c(cnn2-c2ccc(F)cc2)c1)c1ccc(Cl)cc1` [Example 160, N-[(1R,2S)-1-(4-chlorophenyl)-1-[1-(4-fluorophenyl)indazol-5-yl]oxy-propan-2-yl]-2,2,2-trifluoro-acetamide] it was 4.1 nM; in that of `C[C@H](NC(=O)C(F)(F)F)[C@H](Oc1ccc2c(cnn2-c2ccc(F)cc2)c1)c1cc(F)cc(Cl)c1` [Example 161, N-[(1R,2S)-1-(3-chloro-5-fluoro-phenyl)-1-[1-(4-fluorophenyl)indazol-5-yl]oxy-propan-2-yl]-2,2,2-trifluoro-acetamide], 8.5 nM. For `Cc1cc(C)c([C@@H](Oc2ccc3c(cnn3-c3ccc(F)cc3)c2)[C@H](C)NC(=O)C(F)(F)F)cc1C` [Example 162, 2,2,2-trifluoro-N-[(1R,2S)-1-[1-(4-fluorophenyl)indazol-5-yl]oxy-1-(2,4,5-trimethylphenyl)propan-2-yl]acetamide], the half-inhibitory concentration (IC50) came out at 14 nM. In the case of `C[C@H](NC(=O)C(F)(F)F)[C@H](Oc1ccc2c(cnn2-c2ccc(F)cc2)c1)c1ccc(C(C)(C)C)cc1` [Example 163, 2,2,2-trifluoro-N-[(1R,2S)-1-[1-(4-fluorophenyl)indazol-5-yl]oxy-1-(4-tert-butylphenyl)propan-2-yl]acetamide] it was 16 nM; in that of `COc1ccccc1[C@@H](Oc1ccc2c(cnn2-c2ccc(F)cc2)c1)[C@H](C)NC(=O)C(F)(F)F` [Example 164, 2,2,2-trifluoro-N-[(1R,2S)-1-[1-(4-fluorophenyl)indazol-5-yl]oxy-1-(2-methoxyphenyl)propan-2-yl]acetamide], 4.2 nM; in that of `CCCc1ccc([C@@H](Oc2ccc3c(cnn3-c3ccc(F)cc3)c2)[C@H](C)NC(=O)C(F)(F)F)cc1` [Example 165, 2,2,2-trifluoro-N-[(1R,2S)-1-[1-(4-fluorophenyl)indazol-5-yl]oxy-1-(4-propylphenyl)propan-2-yl]acetamide], 6.4 nM. In the case of `C[C@H](NC(=O)C(F)(F)F)[C@H](Oc1ccc2c(cnn2-c2ccc(F)cc2)c1)c1ccc2c(c1)OCO2` [Example 166, N-[(1R,2S)-1-benzo[1,3]dioxol-5-yl-1-[1-(4-fluorophenyl)indazol-5-yl]oxy-propan-2-yl]-2,2,2-trifluoro-acetamide] it was 6.9 nM. In the case of `Cc1c(F)cccc1[C@@H](Oc1ccc2c(cnn2-c2ccc(F)cc2)c1)[C@H](C)NC(=O)C(F)(F)F` [Example 167, 2,2,2-trifluoro-N-[(1R,2S)-1-(3-fluoro-2-methyl-phenyl)-1-[1-(4-fluorophenyl)indazol-5-yl]oxy-propan-2-yl]acetamide] it was 8.6 nM; in that of `Cc1cc([C@@H](Oc2ccc3c(cnn3-c3ccc(F)cc3)c2)[C@H](C)NC(=O)C(F)(F)F)ccc1Cl` [Example 168, N-[(1R,2S)-1-(4-chloro-3-methyl-phenyl)-1-[1-(4-fluorophenyl)indazol-5-yl]oxy-propan-2-yl]-2,2,2-trifluoro-acetamide], 6.2 nM. Turning to `Cc1cc(Cl)ccc1[C@@H](Oc1ccc2c(cnn2-c2ccc(F)cc2)c1)[C@H](C)NC(=O)C(F)(F)F` [Example 169, N-[(1R,2S)-1-(4-chloro-2-methyl-phenyl)-1-[1-(4-fluorophenyl)indazol-5-yl]oxy-propan-2-yl]-2,2,2-trifluoro-acetamide], the IC50 was found to be 8.1 nM. As for `C[C@H](NC(=O)C(F)(F)F)[C@H](Oc1ccc2c(cnn2-c2ccc(F)cc2)c1)c1ccc(Cl)c(F)c1` [Example 170, N-[(1R,2S)-1-(4-chloro-3-fluoro-phenyl)-1-[1-(4-fluorophenyl)indazol-5-yl]oxy-propan-2-yl]-2,2,2-trifluoro-acetamide], the IC50 is 7.1 nM.
